Measurements as given in PubChem BioAssay (NCI).
Values joined by “and” are separate entries in the source; they are usually repeats but may differ in a detail not shown here. Identical values can stand only once.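 In this assay, cells in 96-well plates receive the compound at five concentrations for 48 hours. Endpoints are linearly interpolated between the surrounding concentrations. GI50 marks 50% less growth. TGI marks complete inhibition of growth.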

Columns and labels:
Assay in all cases: NCI tumour cell line growth inhibition, 48 h
SK-MEL-5 melanoma = system: SK-MEL-5 melanoma
RXF 393 renal = system: RXF 393 renal
RPMI-8226 leukemia = system: RPMI-8226 leukemia
SK-MEL-2 melanoma = system: SK-MEL-2 melanoma
ACHN renal = system: ACHN renal
IGROV1 ovarian = system: IGROV1 ovarian
UACC-257 melanoma = system: UACC-257 melanoma
SW-620 colon = system: SW-620 colon
MOLT-4 leukemia = system: MOLT-4 leukemia
SK-MEL-28 melanoma = system: SK-MEL-28 melanoma
CAKI-1 renal = system: CAKI-1 renal
NCI-H460 lung = system: NCI-H460 lung
OVCAR-3 ovarian = system: OVCAR-3 ovarian
MALME-3M melanoma = system: MALME-3M melanoma
K-562 leukemia = system: K-562 leukemia
HT29 colon = system: HT29 colon
HOP-92 NSCLC = system: HOP-92 NSCLC
HCT-15 colon = system: HCT-15 colon
NCI-H23 lung = system: NCI-H23 lung
EKVX NSCLC = system: EKVX NSCLC
COLO 205 colon = system: COLO 205 colon
SN12C renal = system: SN12C renal
TK-10 renal = system: TK-10 renal
HCT-116 colon = system: HCT-116 colon
LOX IMVI melanoma = system: LOX IMVI melanoma
KM12 colon = system: KM12 colon
SK-OV-3 ovarian = system: SK-OV-3 ovarian
SF-268 CNS = system: SF-268 CNS
SNB-19 CNS = system: SNB-19 CNS
PC-3 prostate = system: PC-3 prostate
UO-31 renal = system: UO-31 renal
DU-145 prostate = system: DU-145 prostate
MDA-MB-435 = system: MDA-MB-435
SNB-75 CNS = system: SNB-75 CNS
HOP-62 NSCLC = system: HOP-62 NSCLC
OVCAR-5 ovarian = system: OVCAR-5 ovarian
NCI-H226 lung = system: NCI-H226 lung
MCF7 breast = system: MCF7 breast
SF-539 CNS = system: SF-539 CNS
BT-549 breast = system: BT-549 breast
NCI-H522 lung = system: NCI-H522 lung
OVCAR-8 ovarian = system: OVCAR-8 ovarian
CCRF-CEM leukemia = system: CCRF-CEM leukemia
HS 578T breast = system: HS 578T breast
U251 CNS = system: U251 CNS
HL-60(TB) leukemia = system: HL-60(TB) leukemia
A549 NSCLC = system: A549 NSCLC
T-47D breast = system: T-47D breast
M14 melanoma = system: M14 melanoma
UACC-62 melanoma = system: UACC-62 melanoma
OVCAR-4 ovarian = system: OVCAR-4 ovarian
786-0 renal = system: 786-0 renal
HCC-2998 colon = system: HCC-2998 colon
MDA-MB-231 breast = system: MDA-MB-231 breast
A498 renal = system: A498 renal
SF-295 CNS = system: SF-295 CNS
NCI/ADR-RES ovarian = system: NCI/ADR-RES ovarian
SR leukemia = system: SR leukemia

CCN(CC)CCNc1ccc(C)c2sc3ccccc3c(=O)c12 (tested in a mixture with another compound)
GI50 (SK-MEL-5 melanoma): 1.54 µM and 1.69 µM | TGI (SK-MEL-5 melanoma): 2.98 µM and 3.09 µM | TGI (RXF 393 renal): 5.16 µM | TGI (RPMI-8226 leukemia): 4.49 µM and 4.35 µM | TGI (SK-MEL-2 melanoma): 8.28 µM | GI50 (ACHN renal): 2.34 µM and 2.2 µM | TGI (ACHN renal): 5.47 µM and 5.97 µM | GI50 (IGROV1 ovarian): 1.54 µM and 2.75 µM | TGI (IGROV1 ovarian): 3.1 µM and 9.38 µM | GI50 (UACC-257 melanoma): 2.31 µM | TGI (UACC-257 melanoma): 4.8 µM | TGI (SW-620 colon): 3.46 µM and 3.72 µM | GI50 (MOLT-4 leukemia): 2.55 µM and 2.57 µM | TGI (MOLT-4 leukemia): 6.33 µM and 6.48 µM | TGI (SK-MEL-28 melanoma): 3.3 µM and 3.27 µM | GI50 (CAKI-1 renal): 1.38 µM and 0.694 µM | TGI (CAKI-1 renal): 4.5 µM and 6.47 µM | TGI (NCI-H460 lung): 3.81 µM and 3.58 µM | GI50 (OVCAR-3 ovarian): 2.43 µM | TGI (OVCAR-3 ovarian): 6.92 µM and 7.23 µM | GI50 (MALME-3M melanoma): 1.65 µM and 1.71 µM | TGI (MALME-3M melanoma): 3.46 µM and 3.45 µM | TGI (K-562 leukemia): 3.92 µM and 4.27 µM | TGI (HT29 colon): 3.79 µM | GI50 (HOP-92 NSCLC): 1.34 µM and 1.76 µM | TGI (HOP-92 NSCLC): 6.77 µM and 8.86 µM | TGI (HCT-15 colon): 11.1 µM and 9.1 µM | GI50 (NCI-H23 lung): 2.32 µM | TGI (NCI-H23 lung): 6.01 µM and 11.4 µM | GI50 (EKVX NSCLC): 5.1 µM and 4.96 µM | TGI (EKVX NSCLC): 19.7 µM and 19.5 µM | TGI (COLO 205 colon): 3 µM and 3.1 µM | GI50 (SN12C renal): 4.38 µM | TGI (SN12C renal): 12.7 µM and 18 µM | GI50 (TK-10 renal): 2.73 µM | TGI (TK-10 renal): 5.64 µM and 12.2 µM | GI50 (HCT-116 colon): 1.5 µM | TGI (HCT-116 colon): 2.9 µM and 3.62 µM | GI50 (LOX IMVI melanoma): 1.86 µM and 1.7 µM | TGI (LOX IMVI melanoma): 3.88 µM and 3.81 µM | TGI (KM12 colon): 9.82 µM and 11.6 µM | GI50 (SK-OV-3 ovarian): 2.11 µM and 2.91 µM | TGI (SK-OV-3 ovarian): 5.63 µM and 9.21 µM | GI50 (SF-268 CNS): 3.91 µM and 3.3 µM | TGI (SF-268 CNS): 14.8 µM and 12.5 µM | GI50 (SNB-19 CNS): 3.95 µM | TGI (SNB-19 CNS): 11.4 µM and 15.7 µM | GI50 (PC-3 prostate): 2.77 µM | TGI (PC-3 prostate): 6.63 µM and 12.4 µM | TGI (UO-31 renal): 3.79 µM | GI50 (DU-145 prostate): 2.58 µM and 3.08 µM | TGI (DU-145 prostate): 9.14 µM and 8.92 µM | TGI (MDA-MB-435): 4.13 µM and 4.21 µM | TGI (SNB-75 CNS): 4.6 µM and 6.21 µM | GI50 (HOP-62 NSCLC): 1.54 µM and 2.07 µM | TGI (HOP-62 NSCLC): 3.12 µM and 5.88 µM | GI50 (OVCAR-5 ovarian): 1.8 µM and 2.35 µM | TGI (OVCAR-5 ovarian): 3.98 µM and 5.87 µM | GI50 (NCI-H226 lung): 1.62 µM and 2.27 µM | TGI (NCI-H226 lung): 3.25 µM and 5.09 µM | GI50 (MCF7 breast): 1.81 µM and 1.75 µM | TGI (MCF7 breast): 3.85 µM and 3.73 µM | GI50 (SF-539 CNS): 1.92 µM and 2.25 µM | TGI (SF-539 CNS): 4.06 µM and 5.45 µM | GI50 (BT-549 breast): 6.4 µM | TGI (BT-549 breast): 16.3 µM and 21.4 µM | GI50 (NCI-H522 lung): 3.34 µM | TGI (NCI-H522 lung): 13.3 µM | GI50 (OVCAR-8 ovarian): 6.63 µM | TGI (OVCAR-8 ovarian): 76.9 µM | GI50 (CCRF-CEM leukemia): 2.84 µM and 3.05 µM | TGI (CCRF-CEM leukemia): 8.82 µM and 10.6 µM | GI50 (HS 578T breast): 1.91 µM and 1.78 µM | TGI (HS 578T breast): 4.75 µM and 5 µM | TGI (U251 CNS): 6.92 µM and 8.17 µM | GI50 (HL-60(TB) leukemia): 2.41 µM | TGI (HL-60(TB) leukemia): 3.72 µM and 7.76 µM | GI50 (A549 NSCLC): 1.63 µM | TGI (A549 NSCLC): 3.24 µM and 8.53 µM | GI50 (T-47D breast): 1.75 µM and 2.29 µM | TGI (T-47D breast): 4.64 µM and 7.22 µM | TGI (M14 melanoma): 3.05 µM and 3.14 µM | GI50 (UACC-62 melanoma): 1.08 µM | TGI (UACC-62 melanoma): 2.49 µM and 3.79 µM | GI50 (OVCAR-4 ovarian): 3.91 µM | TGI (OVCAR-4 ovarian): 13.6 µM and 17.3 µM | GI50 (786-0 renal): 1.79 µM | TGI (786-0 renal): 4.83 µM and 11.4 µM | GI50 (HCC-2998 colon): 1.55 µM and 1.94 µM | TGI (HCC-2998 colon): 3.03 µM and 4.51 µM | GI50 (MDA-MB-231 breast): 1.72 µM and 1.83 µM | TGI (MDA-MB-231 breast): 3.56 µM and 3.98 µM | GI50 (A498 renal): 1.83 µM | TGI (A498 renal): 4.11 µM and 7.09 µM | TGI (SF-295 CNS): 5.3 µM and 5.37 µM | GI50 (NCI/ADR-RES ovarian): 3.21 µM and 3.19 µM | TGI (NCI/ADR-RES ovarian): 12.2 µM and 13.5 µM

C/C(=C\CO)CC/C=C(\C)CNc1ccccc1
TGI (SR leukemia): 79.5 µM | TGI (SK-MEL-5 melanoma): 34.1 µM | TGI (RXF 393 renal): > 100 µM | TGI (ACHN renal): > 100 µM | TGI (IGROV1 ovarian): > 100 µM | TGI (UACC-257 melanoma): 91.8 µM | TGI (SW-620 colon): > 100 µM | TGI (MOLT-4 leukemia): 25.7 µM | TGI (SK-MEL-28 melanoma): > 100 µM | TGI (CAKI-1 renal): > 100 µM | TGI (NCI-H460 lung): > 100 µM | TGI (OVCAR-3 ovarian): > 100 µM | TGI (MALME-3M melanoma): 66.9 µM | TGI (K-562 leukemia): > 100 µM | TGI (HT29 colon): 47.9 µM | TGI (HCT-15 colon): > 100 µM | TGI (NCI-H23 lung): 27.1 µM | TGI (EKVX NSCLC): 93.7 µM | TGI (COLO 205 colon): > 100 µM | TGI (SN12C renal): > 100 µM | TGI (TK-10 renal): 65.4 µM | TGI (HCT-116 colon): > 100 µM | TGI (LOX IMVI melanoma): > 100 µM | TGI (KM12 colon): > 100 µM | TGI (SK-OV-3 ovarian): > 100 µM | TGI (SF-268 CNS): > 100 µM | TGI (SNB-19 CNS): > 100 µM | TGI (PC-3 prostate): > 100 µM | TGI (UO-31 renal): > 100 µM | TGI (DU-145 prostate): > 100 µM | TGI (MDA-MB-435): > 100 µM | TGI (SNB-75 CNS): 54.6 µM | TGI (HOP-62 NSCLC): > 100 µM | TGI (OVCAR-5 ovarian): > 100 µM | TGI (NCI-H226 lung): > 100 µM | TGI (MCF7 breast): > 100 µM | TGI (SF-539 CNS): > 100 µM | TGI (BT-549 breast): 55.2 µM | TGI (NCI-H522 lung): 98.5 µM | TGI (OVCAR-8 ovarian): > 100 µM | TGI (HS 578T breast): 97.8 µM | TGI (U251 CNS): > 100 µM | TGI (HL-60(TB) leukemia): > 100 µM | TGI (A549 NSCLC): > 100 µM | TGI (T-47D breast): 81 µM | TGI (M14 melanoma): > 100 µM | TGI (UACC-62 melanoma): > 100 µM | TGI (786-0 renal): > 100 µM | TGI (MDA-MB-231 breast): > 100 µM | TGI (SF-295 CNS): > 100 µM | TGI (NCI/ADR-RES ovarian): > 100 µM
